# Assay results as given in patent publication US20260250629A1, “STEM CELLS BASED THREE-DIMENSIONAL EMBRYO MODEL” (CAMBRIDGE ENTERPRISE LIMITED, priority 2023, published 2026).
# Legend:
# Type in all cases: cell-based, human
# hPGCLCs = experiment: hPGCLC specification in hEOs, NANOS3-tdTomato reporter
# Procedure: (§1) Inventors used W15-NANOS3-tdTomato and RUES2-GLR hES cell lines in this study. All hES cells were cultured in Essential 8™ (E8) medium (Life Technologies, A1517001) on freshly prepared Vitronectin (Fisher Scientific, A31804) coated 6-well plates in humidified chambers at 37° C. and 5% CO2. hES cells were passaged every 3-4 days (once they reached ~70% confluency) using 0.5 mM EDTA (ThermoFisher Scientific, AM9260G) in homemade phosphate buffer saline (1×PBS). The transient state of cells was induced, as described previously, with slight modifications^19. In brief, hES cell colonies (70% confluent) were dissociated into single cells using 0.25% Trypsin-EDTA (Life Technologies, 25200072), seeded (600,000 cells/well) into freshly prepared Vitronectin-coated 6-well plates (~30 mins). The cells were cultured for 24 h in the presence of Advanced RPMI 1640 (Life Technologies, 61870-036) supplemented with B27 supplement (1%) (ThermoFisher Scientific, 17504044), 0.1 mM NEAA, 100 U/ml Penicillin, 0.1 mg/ml Streptomycin, 2 mM L-glutamine, Activin A (1 μg/ml) (In-house produced by Biochemistry Department, University of Cambridge), Chiron (3 μM) (CHIR99021, TOCRIS 4423/10) and Rho-associated, coiled-coil containing protein kinase (ROCK) inhibitor (Rocki: 10 μM); Y27632) (hereafter called induction medium, IM).
# Transient cells induced in IM for 24 h were dissociated into single cells using 0.25% Trypsin-EDTA and seeded (400 cells/well) into Corning Clear Ultra-low attachment 96-well plates (Fisher Scientific 10023683). […]
# hEOs cultured on ultra-low attachment 96-well plates were collected, washed in 1×PBS and fixed in 4% PFA for 3-4 hours at room temperature or 1% PFA overnight at 4° C. hEOs were embedded in OCT mounting medium (VWR-361603E) and incubated in dry ice for 30 min before sectioning the frozen samples. An antigen retrieval procedure was performed to remove the fluorescence reporter from W15-NANOS3-tdTomato hES cell line, where required. […]
# hEOs [1] = experiment: Scaled static culture of hEOs in Aggrewell 400 plates
# Procedure: (§2) 24 well Aggrewell™ 400 plates (StemCell Technologies 34411) were pre-treated with 500 μl/well anti-adherence medium and centrifuged at 1300×g for 5 mins. After aspirating the medium, the wells were rinsed with 2 ml warm basal medium. Then, the medium was replaced by 1 ml warm organisation medium (OM). The plate was incubated at 37° C. at 5% CO2 until the cells were ready for seeding. OM comprised of Essential 6 (E6) medium (Life Technologies, A1516401) supplemented with 0.25 μM CH and ROCKi (10 μM). Pre-induced cells were dissociated using 0.25% Trypsin-EDTA, and 480,000 cells were seeded into each well of an Aggrewell™ 400 Plate at the rate of 400 cells/microwell and were centrifuged at 300×g for 3 mins. The final volume of medium in each well was 2 ml. Cells were cultured in Aggrewell plates at 37° C. at 5% CO2 for 4 days. The OM (without ROCKi) was replaced every day. On day 5, hEOs were manually picked and transferred to bottles for rotary culture in a bioreactor. From Day 5, hEOs were cultured in OM supplemented with 1 μM SB431542 at hypoxic conditions (5% O2, 5% CO2 and without ROCKi). The hEOs were collected at different time points for further analysis.
# niSTEMBRYOs [2] = experiment: Contracting cardiomyocytes in niSTEMBRYOs
# niSTEMBRYOs [3] = experiment: Red hemogenic zones in niSTEMBRYOs
# hEOs [4] = experiment: Self-organization of hES cells into 3D hEOs, static 96-well culture
# Procedure: as §1, with “IM). […]” for “IM).”
# niSTEMBRYOs [5] = experiment: Lineage marker expression and hindgut formation in niSTEMBRYOs
# niSTEMBRYOs [6] = experiment: niSTEMBRYO static and kinetic culture: growth and morphology; conditions: kinetic culture with SB
# hEOs [7] = experiment: Kinetic rotary culture of hEOs: growth and morphology
# Procedure: as §2, with “analysis. Medium containing human cord serum (HCS) (also known as ex-utero culture medium, EUCM) was used as described earlier^64. […]” for “analysis.”
# hEOs [8] = experiment: Frequency of beating hEOs (periodic contractions)
# Procedure: 24 well Aggrewell™ 400 plates (StemCell Technologies 34411) were pre-treated with 500 μl/well anti-adherence medium and centrifuged at 1300×g for 5 mins. After aspirating the medium, the wells were rinsed with 2 ml warm basal medium. Then, the medium was replaced by 1 ml warm organisation medium (OM). The plate was incubated at 37° C. at 5% CO2 until the cells were ready for seeding. OM comprised of Essential 6 (E6) medium (Life Technologies, A1516401) supplemented with 0.25 μM CH and ROCKi (10 μM). Pre-induced cells were dissociated using 0.25% Trypsin-EDTA, and 480,000 cells were seeded into each well of an Aggrewell™ 400 Plate at the rate of 400 cells/microwell and were centrifuged at 300×g for 3 mins. The final volume of medium in each well was 2 ml. Cells were cultured in Aggrewell plates at 37° C. at 5% CO2 for 4 days. The OM (without ROCKi) was replaced every day. On day 5, hEOs were manually picked and transferred to bottles for rotary culture in a bioreactor. From Day 5, hEOs were cultured in OM supplemented with 1 μM SB431542 at hypoxic conditions (5% O2, 5% CO2 and without ROCKi). The hEOs were collected at different time points for further analysis. Medium containing human cord serum (HCS) (also known as ex-utero culture medium, EUCM) was used as described earlier^64. In brief, 25% human cord serum was mixed with 25% DMEM (Gibco 11880) (low glucose, no phenol red, no glutamine, no HEPES) and 50% rat serum. Glutamine and Penicillin-Streptomycin (50 units/ml penicillin) were added to the medium supplemented with 4 mg/ml glucose and HEPES (GIBCO 15630056, 11 mM) and 1 mM Sodium Pyruvate. Human cord serum was provided by the Cambridge Blood and Stem Cell Biobank, which is supported by the Cambridge NIHR Biomedical Research Centre, Wellcome Trust-MRC Stem Cell Institute, UK. Rat serum was heat-inactivated for 30 min at 56° C. and filtered through 0.22 μm PVDF filter, whereas human serum was heat inactivated at 55° C. for 45 minutes and sterilized through filtration by 0.22 μm filters. […]
# hEOs [9] = experiment: Frequency of hEOs with red inclusions (haematopoiesis)
# Procedure: as §2, with “On day 5, hEOs were manually picked and transferred to bottles for rotary culture in a bioreactor. From Day 5, hEOs were cultured in OM supplemented with 1 μM SB431542 at hypoxic conditions (5% O2, 5% CO2 and without ROCKi).” left out
compound,measurement,setting,value
c1ccc2c(-c3cnn4cc(-c5ccc(N6CCNCC6)cc5)cnc34)ccnc2c1 [LDN193189],effect of BMP inhibition on specification of hPGCLCs,"hPGCLCs; inhibitor present on D1, D2 or D3",affected the specification of hPGCLCs when present on D1 but not on D2 or D3
"Cc1c[nH]c(-c2cnc(NCCNc3ccc(C#N)cn3)nc2-c2ccc(Cl)cc2Cl)n1 [CH, CHIR99021]",elongation of the aggregates,"hEOs [1]; four days in the presence of CH, by day 4, 1845/3100, N=4 experiments",~ 60%
same,periodic contractions,niSTEMBRYOs [2]; niSTEMBRYOs cultured with HCS or with CH alone,not evident
same,appearance of red hemogenic zones,niSTEMBRYOs [3]; aggregates cultured in the presence of CH or HCS alone,did not appear
same,elongation of hEOs and hPGCLC specification (NANOS3-tdTomato reporter),"hPGCLCs; CH 0.25 μM, from D2 until D8, without exogenous BMP2/4",both the elongation of hEOs and the specification of hPGCLCs
same,detection of hPGCLCs,"hPGCLCs; high concentration of CH (1.0 μM), D3 hEOs",No hPGCLCs were detected
same,aggregates elongated along the longitudinal axis,"hEOs [4]; 0.25 μM CH, after two days, 1620/1800, N=10 experiments",more than 90%
same,self-organization of aggregates into 3D elongated structures,"hEOs [4]; CH 0.25 μM, 0.5 μM and 1.0 μM",sufficient to promote self-organization into 3D elongated structures
"NC(=O)c1ccc(-c2nc(-c3ccc4c(c3)OCO4)c(-c3ccccn3)[nH]2)cc1 [SB43, SB431542]",increase in the frequency of elongated hEOs,"hEOs [1]; SB in the initial four-day static cultures, D4, p=0.0016",15%
same,niSTEMBRYOs with periodic and highly localised contractions,"niSTEMBRYOs [2]; D8, kinetic culture with SB",~ 72%
same,appearance of contracting cardiomyocytes,niSTEMBRYOs [2]; SB from D1 (SB early) vs SB from D4 (SB late),not affected
same,niSTEMBRYOs with periodic and highly localised contractions,"niSTEMBRYOs [2]; after 7 days, kinetic culture with SB",~ 10%
same,"hindgut (SOX17, SOX2 tubular structure)",niSTEMBRYOs [5]; SB from D1 (SB early),appearance of hindgut
same,expression of mesodermal marker TBXT,"niSTEMBRYOs [5]; SB from D1 (SB early), by D4",downregulated
same,hindgut,niSTEMBRYOs [5]; SB from D4 (SB late),absent
same,aggregate size,niSTEMBRYOs [6]; after 14 days,quadrupling
same,aggregate size,niSTEMBRYOs [6]; after four days,doubling in size
same,hEO size,"hEOs [7]; kinetic culture with 1 μM SB43, with or without 10% Matrigel, after four days",doubled in size
same,hEO size relative to static culture on D4,"hEOs [7]; kinetic culture with SB, after 22 days",quadrupled in size
same,haematopoiesis in niSTEMBRYOs,niSTEMBRYOs [3]; SB43 from day 4 onwards (SB late),promoted haematopoiesis
same,red hemogenic phenotype,niSTEMBRYOs [3]; SB from D1 (SB early),no red hemogenic phenotype was observed
same,niSTEMBRYOs developing visible red hemogenic zones,"niSTEMBRYOs [3]; SB in rotary cultures, from D14 onwards, N=196/1170, 5 experiments",~ 16%
same,hEOs with periodic and highly localised contractions,"hEOs [8]; D7, kinetic culture with SB",~ 10%
same,hEOs with periodic and highly localised contractions,"hEOs [8]; D8, kinetic culture with SB",~70%
same,decrease in the number of beating hEOs,"hEOs [8]; SB in static and kinetic cultures vs SB only during kinetic cultures, D8, p<0.0001",40%
same,hEOs containing large internal red zones,"hEOs [9]; SB in rotary cultures, by day 15",~ 14%
same,red inclusion phenotype,hEOs [9]; SB included in the 4D static culture,entirely lost
